Measured values: patent US20230330134A1, “METHOD OF PROPHYLAXIS OF CORONAVIRUS AND/OR RESPIRATORY SYNCYTIAL VIRUS INFECTION” (Starpharma Pty Ltd., priority 2020, published 2023)

Assays:
SARS-CoV-2 = format: cell-based; conditions: 25 mg/mL incubated with 10^5 TCID50/mL virus, 37° C., 60 minutes; titrated on Vero cells
[1] = tested on: Human Respiratory Syncytial Virus; assay: Antiviral pre-treatment and post-treatment plaque tests (RSV); format: cell-based, Human respiratory syncytial virus (HRSV); conditions: Hep-2 cells
Procedure: The concentrations of the Test Product were prepared using approximately 1:3 dilutions from the starting concentration determined following the cytotoxicity test.
The host cell culture was washed with PBS, and 1.0 mL aliquots of test product dilutions added to the cells. Cells were then incubated for 1 hour ± 15 minutes for equilibration. After the incubation, 1.0 mL aliquots of virus was added to the wells and incubated for 1 hour ± 15 minutes for virus adsorption. Following incubation, the mixture was removed and replaced with TM. The plates were then incubated in a CO2 incubator. The plates were incubated until viral plaques in the virus control could be microscopically registered (approximately 5-10 days).
Fixed cells were stained using Crystal Violet stain. Unstained zones of cell lysis (viral plaques) were counted.
The concentrations of the test product were prepared using approximately 1:3 dilutions from the starting concentration determined following the cytotoxicity test.
The host cell culture was washed with PBS, and 1.0 mL aliquots of virus added to the wells and incubated for 1 hour ± 15 minutes for virus adsorption. After incubation, virus inoculum was removed and replaced with aliquots of the test product concentrations in TM. The plates were then incubated in a CO2 incubator. The plates were then incubated until viral plaques in the virus control can be microscopically registered (approximately 5-10 days).
For the cell culture control, intact cell culture monolayers were used as the control of cell viability. The GM was replaced by TM in the cell culture control wells. […] Fixed cells were stained using Crystal Violet stain. Unstained zones of cell lysis (viral plaques) were counted.
Assessment of antiviral properties: The antiviral properties EC50 and/or EC90 was determined using non-linear regression analysis, GraphPad Prism 5.0 software.

[2] = target: SARS-CoV-2 spike RBD recombinant protein (Severe acute respiratory syndrome coronavirus 2, UniProt P0DTC2); format: cell-based; conditions: 1 mg/mL in PBS, 1 hour prior to challenge; confocal microscopy
[3] = tested on: SARS-CoV-2 (2019-nCoV/USA-WA1/2020); assay: Virucidal evaluation with neutralization through sucrose cushion, plaque assay; format: cell-based; conditions: for Reduction vs. Virus Control (%) / Reduction vs. Virus Control (Log10± SD): 10 mg/mL
[4] = rats
[5] = tested on: SARS-CoV-2 (2019-nCoV/USA-WA1/2020); assay: microbe, parasite or virus in culture; format: cell-based; conditions: Day 4 post-infection
Vero E6 cells = conditions: Day 4
[6] = tested on: SARS-CoV-2 (hCoV-19/Australia/VIC01/2020); format: cell-based; conditions: 0.345 mg/mL added 0 min to 6 h post-infection; Vero E6; MOI 1; all time points
[7] = 10^4 pfu/mL, 5 sec incubation, 96 hours post-infection, Vero E6
[8] = 10^4 pfu/mL, 10 sec incubation, 96 hours post-infection, Vero E6
[9] = 10^4 pfu/mL, 30 sec incubation, 16 hours post-infection, Vero E6
[10] = 10^4 pfu/mL, 30 sec incubation, 96 hours post-infection, Vero E6
[11] = 10^4 pfu/mL, 1 min incubation, 16 hours post-infection, Vero E6
[12] = 10^4 pfu/mL, 1 min incubation, 96 hours post-infection, Vero E6
[13] = 10^4 pfu/mL, 5 min incubation, 16 hours post-infection, Vero E6
[14] = 10^4 pfu/mL, 10 min incubation, 96 hours post-infection, Vero E6
[15] = 10^4 pfu/mL, 15 min incubation, 16 hours post-infection, Vero E6
[16] = 10^4 pfu/mL, 15 min incubation, 96 hours post-infection, Vero E6
[17] = 10^5 pfu/mL, 5 sec incubation, 96 hours post-infection, Vero E6
[18] = 10^5 pfu/mL, 10 sec incubation, 96 hours post-infection, Vero E6
[19] = 10^5 pfu/mL, 30 sec incubation, 16 hours post-infection, Vero E6
[20] = 10^5 pfu/mL, 30 sec incubation, 96 hours post-infection, Vero E6
[21] = 10^5 pfu/mL, 1 min incubation, 16 hours post-infection, Vero E6
[22] = 10^5 pfu/mL, 1 min incubation, 96 hours post-infection, Vero E6
[23] = 10^5 pfu/mL, 5 min incubation, 16 hours post-infection, Vero E6
[24] = 10^5 pfu/mL, 10 min incubation, 96 hours post-infection, Vero E6
[25] = 10^5 pfu/mL, 15 min incubation, 16 hours post-infection, Vero E6
[26] = 10^5 pfu/mL, 15 min incubation, 96 hours post-infection, Vero E6
[27] = 10^6 pfu/mL, 5 sec incubation, 96 hours post-infection, Vero E6
[28] = 10^6 pfu/mL, 10 sec incubation, 96 hours post-infection, Vero E6
[29] = 10^6 pfu/mL, 30 sec incubation, 96 hours post-infection, Vero E6
[30] = 10^6 pfu/mL, 1 min incubation, 96 hours post-infection, Vero E6
[31] = 10^6 pfu/mL, 10 min incubation, 96 hours post-infection, Vero E6
[32] = 10^6 pfu/mL, 15 min incubation, 96 hours post-infection, Vero E6

astodrimer sodium [SPL7013]
viricidal activity (SARS-CoV-2): stopped all virus growth
EC50, Best Fit Value ([1]; Post Treatment): 107 µg/mL
EC90, Best Fit Value ([1]; Post Treatment): 1159 µg/mL
EC50, Best Fit Value ([1]; PreTreatment): 45 µg/mL
EC90, Best Fit Value ([1]; PreTreatment): 180 µg/mL
binding of SARS-CoV-2 spike protein to cells expressing the hACE2 receptor [2]: no detectable binding
Reduction vs. Virus Control (%) [3, 7]: -35.936%
Reduction vs. Virus Control (Log10± SD) [3, 7]: -0.13 ± 0.21 Log10
Reduction vs. Virus Control (%) [3, 8]: 14.230%
Reduction vs. Virus Control (Log10± SD) [3, 8]: 0.07 ± 0.29 Log10
Reduction vs. Virus Control (%) [3, 9]: 36.904%
Reduction vs. Virus Control (Log10± SD) [3, 9]: 0.20 ± 0.20 Log10
Reduction vs. Virus Control (%) [3, 10]: 20.567%
Reduction vs. Virus Control (Log10± SD) [3, 10]: 0.10 ± 0.10 Log10
Reduction vs. Virus Control (%) [3, 11]: 99.932%
Reduction vs. Virus Control (Log10± SD) [3, 11]: 3.17 ± 0.12 Log10
Reduction vs. Virus Control (%) [3, 12]: 20.567%
Reduction vs. Virus Control (Log10± SD) [3, 12]: 0.10 ± 0.00 Log10
Reduction vs. Virus Control (%) [3, 13]: 99.979%
Reduction vs. Virus Control (Log10± SD) [3, 13]: 3.67 ± 0.21 Log10
Reduction vs. Virus Control (%) [3, 14]: >99.999%
Reduction vs. Virus Control (Log10± SD) [3, 14]: 5.07 ± 0.25 Log10
Reduction vs. Virus Control (%) [3, 15]: 99.990%
Reduction vs. Virus Control (Log10± SD) [3, 15]: 4.00 ± 0.10 Log10
Reduction vs. Virus Control (%) [3, 16]: >99.999%
Reduction vs. Virus Control (Log10± SD) [3, 16]: 5.83 ± 0.12 Log10
Reduction vs. Virus Control (%) [3, 17]: 53.584%
Reduction vs. Virus Control (Log10± SD) [3, 17]: 0.33 ± 0.21 Log10
Reduction vs. Virus Control (%) [3, 18]: 41.566%
Reduction vs. Virus Control (Log10± SD) [3, 18]: 0.23 ± 0.06 Log10
Reduction vs. Virus Control (%) [3, 19]: 0.000%
Reduction vs. Virus Control (Log10± SD) [3, 19]: 0.00 ± 0.36 Log10
Reduction vs. Virus Control (%) [3, 20]: 49.881%
Reduction vs. Virus Control (Log10± SD) [3, 20]: 0.30 ± 0.17 Log10
Reduction vs. Virus Control (%) [3, 21]: 99.767%
Reduction vs. Virus Control (Log10± SD) [3, 21]: 2.63 ± 0.15 Log10
Reduction vs. Virus Control (%) [3, 22]: 65.855%
Reduction vs. Virus Control (Log10± SD) [3, 22]: 0.47 ±0.21 Log10
Reduction vs. Virus Control (%) [3, 23]: 99.998%
Reduction vs. Virus Control (Log10± SD) [3, 23]: 4.63 ± 0.31 Log10
Reduction vs. Virus Control (%) [3, 24]: 99.980%
Reduction vs. Virus Control (Log10± SD) [3, 24]: 3.70 ± 0.26 Log10
Reduction vs. Virus Control (%) [3, 25]: 99.998%
Reduction vs. Virus Control (Log10± SD) [3, 25]: 4.60 ± 0.10 Log10
Reduction vs. Virus Control (%) [3, 26]: 99.998%
Reduction vs. Virus Control (Log10± SD) [3, 26]: 4.60 ± 0.10 Log10
Reduction vs. Virus Control (%) [3, 27]: 20.567%
Reduction vs. Virus Control (Log10± SD) [3, 27]: 0.10 ± 0.20 Log10
Reduction vs. Virus Control (%) [3, 28]: 7.388%
Reduction vs. Virus Control (Log10± SD) [3, 28]: 0.03 ± 0.06 Log10
Reduction vs. Virus Control (%) [3, 29]: 20.567%
Reduction vs. Virus Control (Log10± SD) [3, 29]: 0.10 ± 0.10 Log10
Reduction vs. Virus Control (%) [3, 30]: 53.584%
Reduction vs. Virus Control (Log10± SD) [3, 30]: 0.33 ± 0.12 Log10
Reduction vs. Virus Control (%) [3, 31]: 99.369%
Reduction vs. Virus Control (Log10± SD) [3, 31]: 2.20 ± 0.10 Log10
Reduction vs. Virus Control (%) [3, 32]: 99.979%
Reduction vs. Virus Control (Log10± SD) [3, 32]: 3.67 ± 0.23 Log10
reduction in virus infectivity ([3]; 1 to 30 mg/mL, inoculums 10^4, 10^5 and 10^6 pfu/mL, 10 to 15 minutes exposure): > 99.9%
reduction in virus infectivity ([3]; 10^4 pfu/mL viral inoculum, 10 to 30 mg/mL, 10 to 15 min incubation): > 99.999%
SARS-CoV-2 inactivated ([3]; >10 mg/mL, 10^4 pfu/mL, within as little as 1 minute of exposure, 16 hours post-infection): > 99.9%
reduced infectivity ([3]; Vero E6, 10^6 pfu/mL, incubation 15 to 30 minutes, 10 to 30 mg/mL): > 99.999%
reduction of infectivity ([3]; after 1 minute of exposure to the virus): > 99.9%
virucidal effect ([3]; exposure to virus for 30 seconds): no detectable virucidal effect
SPL7013 in pooled plasma sample ([4]; 1% group, one 3 hr sample (called an aberration)): 0.635 µg/mL
SPL7013 in pooled plasma samples (LLOQ) ([4]; 1% or 3% Nasal Spray 4 times daily for 7 days, Day 1 and Day 7, pre-dose to 6 hr, all samples but one): < 0.5 µg/mL
EC50 ([5]; added 1-hour post-infection, Calu-3): 30 µg/mL
EC50 ([5]; added 1-hour post-infection, Vero E6): 19 µg/mL
EC50 ([5]; added 1-hour pre-infection, Calu-3): 37 µg/mL
EC50 ([5]; added 1-hour pre-infection, Vero E6): 32 µg/mL
EC50 ([5]; added at time of infection, Calu-3): 35 µg/mL
EC50 ([5]; added at time of infection, Vero E6): 20 µg/mL
CC50 (Vero E6 cells): 15090 µg/mL
infectious virus titer in supernatant (TCID50) at 8 hours post-infection [6]: below the lower limit of detection
